# What was measured:
# KK mice = assay: Hypoglycemic effect in diabetic KK mice (Test Example 1); format: in vivo; details: Mus musculus, po, 72 h; male KK mice, diet admixture containing 0.03% of the compound, 3 days, plasma glucose vs control group; read-out: Hypoglycemic rate (%)
# Description: Six-week-old male KK mice were purchased from CLEA Japan, Inc. and then were fed until 15 to 20 weeks old to develop diabetes. The mice were individually fed during the adaptation period and the test period, and water and feed (FR2, Funabashi Farm) were freely ingested.
# At the start of the experiment, after body weight measurement, blood was collected from the tail vein of the mice into a heparin-coated glass tube and centrifuged, and then plasma was separated. The glucose level in the plasma was measured by Glucoloader GXT (A&T Corp.), and individuals having a plasma glucose level of about 350 mg/dl or more were selected. The mice were grouped, each group having 3 to 4 mice, to make the average body weight and the average plasma glucose level similar. Each compound was administered to a compound group with a diet admixture containing 0.03% of the compound. A separate group in which the mice were fed only with diet was a control group.
# The experiment period (drug administration period) was three days. The grouping day was the 0th day. On the 3rd day, the body weight was measured and blood was collected from the tail vein to measure the plasma glucose level.
# The hypoglycemic rate was determined by the following formula.
# Hypoglycemic rate=[(Control group blood glucose level−Compound-administered group blood glucose level)/Control group blood glucose level]×100
melting point [°C],SMILES,inhibition in vivo at 0.03 % in diet (KK mice) [%]
195 to 208,COC(=O)c1cccc(OCc2nc3ccc(Oc4cccnc4)cc3n2C)c1.Cl.Cl,–
–,"Cn1c(COc2cccc(C(=O)O)c2)nc2ccc(Oc3ccccc3F)cc21 [Example 28, 3-{[6-(2-Fluorophenoxy)-1-methyl-1H-benzimidazol-2-yl]methoxy}benzoic acid]",61
–,"COc1cccc(Oc2ccc3nc(COc4cccc(C(=O)O)c4)n(C)c3c2)c1 [Example 29, 3-{[6-(3-Methoxyphenoxy)-1-methyl-1H-benzimidazol-2-yl]methoxy}benzoic acid]",60
218 to 222,"Cl.Cn1c(COc2cccc(C(=O)O)c2)nc2ccc(Oc3cccc(Cl)c3)cc21 [Example 31, 3-[6-(3-Chlorophenoxy)-1-methyl-1H-benzimidazol-2-ylmethoxy]benzoic acid hydrochloride]",47
221 to 227,"Cn1c(COc2cccc(C(=O)O)c2)nc2ccc(Oc3cccc(OC(F)(F)F)c3)cc21 [Example 33, 3-({1-Methyl-6-[3-(trifluoromethoxy)phenoxy]-1H-benzimidazol-2-yl}methoxy]benzoic acid]",42
209 to 213,"Cn1c(COc2cccc(C(=O)O)c2)nc2ccc(Oc3cc(F)cc(Cl)c3)cc21 [Example 38, 3-{[6-(3-Chloro-5-fluorophenoxy)-1-methyl-1H-benzimidazol-2-yl]methoxy}benzoic acid]",–
224 to 226,"Cc1cc(F)cc(Oc2ccc3nc(COc4cccc(C(=O)O)c4)n(C)c3c2)c1 [Example 40, 3-{[6-(3-Fluoro-5-methylphenoxy)-1-methyl-1H-benzimidazol-2-yl]methoxy}benzoic acid]",–
–,"Cn1c(COc2cccc(C(=O)O)c2)nc2ccc(Oc3cc(F)ccc3F)cc21 [Example 41, 3-{[6-(2,5-Difluorophenoxy)-1-methyl-1H-benzimidazol-2-yl]methoxy}benzoic acid]",51
204 to 208,"CCc1cccc(Oc2ccc3nc(COc4cccc(C(=O)O)c4)n(C)c3c2)c1 [Example 42, 3-{[6-(3-Ethylphenoxy)-1-methyl-1H-benzimidazol-2-yl]methoxy}benzoic acid]",29
–,"Cc1ccc(Oc2ccc3nc(COc4cccc(C(=O)O)c4)n(C)c3c2)cc1 [Example 49, 3-{[1-Methyl-6-(4-methylphenoxy)-1H-benzimidazol-2-yl]methoxy}benzoic acid]",48
–,"COc1cc(Oc2ccc3nc(COc4cccc(C(=O)O)c4)n(C)c3c2)ccc1C [Example 54, 3-{[6-(3-Methoxy-4-methylphenoxy)-1-methyl-1H-benzimidazol-2-yl]methoxy}benzoic acid]",32
–,"Cc1ccc(Oc2ccc3nc(COc4cccc(C(=O)O)c4)n(C)c3c2)cc1C [Example 55, 3-{[6-(3,4-Dimethylphenoxy)-1-methyl-1H-benzimidazol-2-yl]methoxy}benzoic acid]",44
–,"Cn1c(COc2cc(F)cc(C(=O)O)c2)nc2ccc(Oc3ccc(Cl)c(F)c3)cc21 [Example 59, 3-{[6-(4-Chloro-3-fluorophenoxy)-1-methyl-1H-benzimidazol-2-yl]methoxy}-5-fluorobenzoic acid]",47
–,"CCC(CC)Oc1ccc2nc(COc3cccc(C(=O)O)c3)n(C)c2c1 [Example 67, 3-{[6-(1-Ethylpropoxy)-1-methyl-1H-benzimidazol-2-yl]methoxy}benzoic acid]",50
–,"Cc1ccc(Oc2ccc3nc(COc4cccc(C(=O)O)c4)n(C)c3n2)cc1 [Example 69, 3-{[3-Methyl-5-(4-methylphenoxy)-3H-imidazo[4,5-b]pyridin-2-yl]methoxy}benzoic acid]",43
–,"Cc1ccc(Oc2ccc3nc(COc4cccc(C(=O)O)c4)n(C)c3n2)cc1C [Example 70, 3-{[5-(3,4-Dimethylphenoxy)-3-methyl-3H-imidazo[4,5-b]pyridin-2-yl]methoxy}benzoic acid]",38
–,"Cc1ccc(Oc2ccc3nc(COc4cc(F)cc(C(=O)O)c4)n(C)c3n2)cc1 [Example 72, 3-Fluoro-5-{[3-methyl-5-(4-methylphenoxy)-3H-imidazo[4,5-b]pyridin-2-yl]methoxy}benzoic acid]",42

# From US20100048564A1, “FUSED BICYCLIC HETEROARYL DERIVATIVE” (DAIICHI SANKYO COMPANY, LIMITED, priority 2007, published 2010)
